Data: PubChem BioAssay (NCI)
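Assay format: 96-well plates, 48-hour exposure. GI50 marks 50% less growth. At the TGI there is no net growth.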

Assays:
Experiment in all cases: NCI-60 cell line screen, 48 h
[1] = tested on: COLO 205 colon
[2] = tested on: NCI-H460 lung
[3] = tested on: A498 renal
[4] = tested on: HCT-15 colon
[5] = tested on: SK-MEL-2 melanoma
[6] = tested on: HCT-116 colon
[7] = tested on: LOX IMVI melanoma
[8] = tested on: UACC-62 melanoma
[9] = tested on: SK-OV-3 ovarian
[10] = tested on: HS 578T breast

Row | SMILES | TGI [1] | TGI [2] | TGI [3] | TGI [4] | TGI [5] | TGI [6] | TGI [7] | TGI [8] | TGI [9] | GI50 [1] | GI50 [2] | GI50 [4] | GI50 [10] | TGI [10] | GI50 [5] | GI50 [6] | GI50 [7] | GI50 [8] | GI50 [9] | GI50 [3]
1 | O=C(CCN(C(=O)O)S(=O)(=O)c1ccc(NC(=O)c2ccccc2)cc1)Nc1ccccc1 | > 80.2 µM | > 83.6 µM | > 100 µM | > 75.2 µM | > 100 µM | > 69.5 µM | > 71.4 µM | 97.5 µM | > 100 µM |  |  |  |  |  |  |  |  |  |  | 
2 | N=C(N)C1CN(CCc2c[nH]c3ccccc23)C(=O)NC1=O (configuration not stated) | > 100 µM | > 100 µM | > 100 µM | > 100 µM |  | > 100 µM | > 100 µM | > 100 µM | > 100 µM |  |  |  |  |  |  |  |  |  |  | 
3 | O=[N+]([O-])c1cccc(C2=NN(c3ccccc3)C[N+](c3ccc(Br)cc3)=N2)c1 | > 100 µM | > 100 µM | > 100 µM | > 100 µM | > 100 µM | > 100 µM |  | > 100 µM | > 100 µM |  |  |  |  |  |  |  |  |  |  | 
4 | CCCCCCCCCCCCCC(=O)OCC(C[As](=O)(O)O)OC(=O)CCCCCCCCCCCCC (configuration not stated) |  | > 100 µM | > 100 µM | > 100 µM | > 100 µM | > 100 µM |  | > 100 µM | > 100 µM |  |  |  |  |  |  |  |  |  |  | 
5 | CC1=C(C(=O)Nc2ccc(F)c(Cl)c2)C(c2ccccc2O)NC(=S)N1 (configuration not stated) | > 50 µM | > 50 µM |  | > 50 µM | > 50 µM | > 50 µM | > 50 µM | > 50 µM | > 50 µM | > 50 µM | 21.4 µM | 45.1 µM | 35 µM | > 50 µM | 23.6 µM | > 50 µM | 23.6 µM | > 50 µM | > 50 µM | 
6 | COc1ccc(C2SC(N)=Nc3c2c(C)nn3C(=O)c2ccncc2)cc1OC (configuration not stated) | > 10 µM | > 10 µM |  | > 10 µM | > 10 µM | > 10 µM | > 10 µM | > 10 µM | > 10 µM |  |  |  |  | > 10 µM |  |  |  |  |  | 
7 | CC(C)CCC1CC2C(=O)N(c3ccccc3)C(=O)C2c2[nH]c3ccccc3c21 (configuration not stated) | 7.08 µM | 12.2 µM | 16 µM | 13.4 µM |  |  | 14.6 µM | 20.9 µM | 32.2 µM |  |  |  |  |  |  |  |  |  |  | 
8 | [N-]=[N+]=NC1(Cc2ccccc2)C(=O)c2cccc3c2N(CCC3)C1=O (configuration not stated) | > 100 µM | > 100 µM |  | > 100 µM | > 100 µM | > 100 µM | > 100 µM | > 100 µM | > 100 µM |  |  |  |  |  |  |  |  |  |  | 
9 | Nc1ccc([N+](=O)[O-])cc1N=C/C=C/c1ccccc1 | > 100 µM | 41.9 µM | 64.4 µM | > 100 µM | > 100 µM | 25 µM | 80.7 µM | > 100 µM | > 100 µM | 23 µM | 11.3 µM | 13.5 µM |  |  | 28.6 µM | 7.86 µM | 3.98 µM | 11.9 µM | 26.5 µM | 15.1 µM
10 | O=C1CCC2(c3ccc(Cl)cc3)Nc3ncccc3N12 (configuration not stated) | > 100 µM | > 100 µM | > 100 µM | > 100 µM | > 100 µM |  | > 100 µM | > 100 µM | > 100 µM |  |  |  |  |  |  |  |  |  |  | 
11 | C#CCOc1cccc(-c2ncc3cc(NC(=O)CCl)ccc3n2)c1 |  | 4.83 µM | 31 µM |  | 3.63 µM |  |  | 3.36 µM | > 100 µM |  | 2.16 µM |  |  |  | 1.58 µM |  |  | 1.52 µM | 3.58 µM | 13.2 µM
12 | N#CN/C(N)=N/CO | > 57.8 µM | > 100 µM | > 100 µM | > 56.9 µM | > 100 µM | > 64.4 µM | > 57.7 µM | > 100 µM | > 100 µM |  |  |  |  |  |  |  |  |  |  | 
13 | CC1(C)COC(C2(C)C(=O)C=C(c3ccccc3)c3ccccc32)=N1 (configuration not stated) | > 100 µM | > 100 µM |  | > 100 µM | > 100 µM | > 100 µM |  | > 100 µM | 47.9 µM |  |  |  |  |  |  |  |  |  |  | 
14 | O=C1CCC(Cl)=CC2CCCN12 (configuration not stated) | > 100 µM | > 100 µM | > 100 µM | > 100 µM | > 100 µM | > 100 µM | > 100 µM | > 100 µM | > 100 µM |  |  |  |  |  |  |  |  |  |  | 
15 | O=C(Nc1ccn(CCO)c(=O)n1)c1ccccc1 | > 100 µM | > 100 µM | > 100 µM | > 100 µM | > 100 µM | > 100 µM | > 100 µM | > 100 µM | > 100 µM |  |  |  |  |  |  |  |  |  |  | 
16 | CNCc1ccccc1-c1csc([C@@H](C)Nc2nc(C)nc3cc(OC)c(OC)cc23)c1 | 3.59 µM | 4.16 µM | 1.92 µM | 3.55 µM | 3.69 µM | 3.41 µM | 2.98 µM | 3.43 µM | 18.8 µM | 1.77 µM | 2.03 µM | 1.61 µM |  |  | 1.87 µM | 1.71 µM | 1.57 µM | 1.84 µM | 4.67 µM | 0.289 µM
